From the NIST ThermoML archive (doi:10.1016/j.fluid.2004.11.021)

Experiment: xn = mol fraction of the nth substance listed
Settings: Fluid (supercritical or subcritical phases)

CF [fluoromethane] + [N-]=[N+]=O
Other PVT measurement
Settings	molar volume [m3/mol]
263.02 K, 2088.5 kPa, x2 = 0.6161	0.000766
263.03 K, 1936.1 kPa, x2 = 0.508	0.000863
267.98 K, 1999.2 kPa, x2 = 0.508	0.000863
268 K, 2048.2 kPa, x2 = 0.3047	0.00074
268 K, 2223.9 kPa, x2 = 0.6161	0.000766
272.89 K, 2060.3 kPa, x2 = 0.508	0.000863
272.98 K, 2295.8 kPa, x2 = 0.6161	0.000766
273.01 K, 2223.5 kPa, x2 = 0.3047	0.000741
273.05 K, 1878.4 kPa, x2 = 0.1467	0.000909
277.86 K, 2121 kPa, x2 = 0.508	0.000863
282.81 K, 2371.8 kPa, x2 = 0.3047	0.000741
282.83 K, 1994.7 kPa, x2 = 0.1467	0.000909
283.04 K, 2438 kPa, x2 = 0.6161	0.000767
287.8 K, 4359.8 kPa, x2 = 0.8263	0.000305
288.08 K, 2242.8 kPa, x2 = 0.508	0.000864
292.79 K, 2109.4 kPa, x2 = 0.1467	0.00091
292.93 K, 4761.6 kPa, x2 = 0.8263	0.000305
292.96 K, 2512.2 kPa, x2 = 0.3047	0.000741
293.07 K, 2574.6 kPa, x2 = 0.6161	0.000767
298.08 K, 2168.4 kPa, x2 = 0.1467	0.00091
298.09 K, 2358.5 kPa, x2 = 0.508	0.000864
298.11 K, 2642.6 kPa, x2 = 0.6161	0.000767
298.17 K, 2591.9 kPa, x2 = 0.3047	0.000741
302.97 K, 5179 kPa, x2 = 0.8263	0.000305
307.96 K, 5380.9 kPa, x2 = 0.8263	0.000305
308.05 K, 2279.3 kPa, x2 = 0.1467	0.00091
308.06 K, 2474.5 kPa, x2 = 0.508	0.000865
308.13 K, 2731.2 kPa, x2 = 0.3047	0.000742
308.15 K, 2774.9 kPa, x2 = 0.6161	0.000768
312.91 K, 5577.9 kPa, x2 = 0.8263	0.000305
318.05 K, 2388.7 kPa, x2 = 0.1467	0.000911
318.11 K, 2867.7 kPa, x2 = 0.3047	0.000742
318.12 K, 2588.2 kPa, x2 = 0.508	0.000865
318.12 K, 2904.6 kPa, x2 = 0.6161	0.000768
328.03 K, 2496.3 kPa, x2 = 0.1467	0.000911
328.09 K, 3033 kPa, x2 = 0.6161	0.000768
328.1 K, 3002.9 kPa, x2 = 0.3047	0.000742
328.11 K, 2699.9 kPa, x2 = 0.508	0.000865
338.08 K, 2810.2 kPa, x2 = 0.508	0.000866
338.08 K, 3160 kPa, x2 = 0.6161	0.000769
338.09 K, 2603.1 kPa, x2 = 0.1467	0.000912
338.09 K, 3135.8 kPa, x2 = 0.3047	0.000743
347.94 K, 2707 kPa, x2 = 0.1467	0.000912
348.05 K, 3285.8 kPa, x2 = 0.6161	0.000769
348.06 K, 2919.8 kPa, x2 = 0.508	0.000866
348.06 K, 3267 kPa, x2 = 0.3047	0.000743
354.94 K, 2779.9 kPa, x2 = 0.1467	0.000912
358.03 K, 3396.5 kPa, x2 = 0.3047	0.000743
358.03 K, 3410.5 kPa, x2 = 0.6161	0.000769
358.05 K, 3028.8 kPa, x2 = 0.508	0.000867

[N-]=[N+]=O [nitrous oxide] + FC(F)F
isochoric method
Settings	molar volume [m3/mol]
253.03 K, 1464.8 kPa, x1 = 0.1116	0.001035
253.09 K, 1627.2 kPa, x1 = 0.4162	0.000978
258 K, 1541.9 kPa, x1 = 0.1116	0.001035
258.06 K, 1905.9 kPa, x1 = 0.563	0.000867
258.08 K, 1718.9 kPa, x1 = 0.4162	0.000978
258.09 K, 1832.3 kPa, x1 = 0.2888	0.000828
262.96 K, 1968.2 kPa, x1 = 0.563	0.000867
263.06 K, 1593.9 kPa, x1 = 0.1116	0.001035
263.06 K, 1774.4 kPa, x1 = 0.4162	0.000979
263.08 K, 1926.6 kPa, x1 = 0.2888	0.000829
267.94 K, 2030.3 kPa, x1 = 0.563	0.000867
268 K, 1644.1 kPa, x1 = 0.1116	0.001035
268.04 K, 1829.1 kPa, x1 = 0.4162	0.000979
268.04 K, 1991.7 kPa, x1 = 0.2888	0.000829
268.04 K, 2663.9 kPa, x1 = 0.6362	0.000591
272.9 K, 1693.3 kPa, x1 = 0.1116	0.001035
272.93 K, 2055.2 kPa, x1 = 0.2888	0.000829
272.95 K, 2091.7 kPa, x1 = 0.563	0.000867
273.02 K, 2765.9 kPa, x1 = 0.6362	0.000591
273.03 K, 1883 kPa, x1 = 0.4162	0.000979
282.83 K, 2180.4 kPa, x1 = 0.2888	0.000829
282.84 K, 1790.6 kPa, x1 = 0.1116	0.001036
283 K, 1988.8 kPa, x1 = 0.4162	0.000979
283 K, 2957.6 kPa, x1 = 0.6362	0.000591
283.02 K, 2213.7 kPa, x1 = 0.563	0.000868
292.93 K, 3143.3 kPa, x1 = 0.6362	0.000591
293.06 K, 1887.6 kPa, x1 = 0.1116	0.001036
293.07 K, 2332 kPa, x1 = 0.563	0.000868
293.08 K, 2094.2 kPa, x1 = 0.4162	0.00098
298.02 K, 3235.8 kPa, x1 = 0.6362	0.000591
298.05 K, 1934.6 kPa, x1 = 0.1116	0.001037
298.08 K, 2145.4 kPa, x1 = 0.4162	0.00098
298.09 K, 2390.3 kPa, x1 = 0.563	0.000868
298.1 K, 2367.2 kPa, x1 = 0.2888	0.00083
308.02 K, 2027.4 kPa, x1 = 0.1116	0.001037
308.05 K, 3416.1 kPa, x1 = 0.6362	0.000592
308.06 K, 2246.6 kPa, x1 = 0.4162	0.000981
308.08 K, 2486.6 kPa, x1 = 0.2888	0.00083
308.42 K, 2509 kPa, x1 = 0.563	0.000869
317.83 K, 2615.8 kPa, x1 = 0.563	0.000869
318.02 K, 2345.8 kPa, x1 = 0.4162	0.000981
318.02 K, 2603.8 kPa, x1 = 0.2888	0.000831
318.03 K, 3592.6 kPa, x1 = 0.6362	0.000592
318.11 K, 2119.5 kPa, x1 = 0.1116	0.001037
328.1 K, 2210.6 kPa, x1 = 0.1116	0.001038
328.1 K, 2731.1 kPa, x1 = 0.563	0.000869
328.11 K, 2445.5 kPa, x1 = 0.4162	0.000981
328.12 K, 3768.5 kPa, x1 = 0.6362	0.000592
328.13 K, 2721.6 kPa, x1 = 0.2888	0.000831
338.08 K, 2300.2 kPa, x1 = 0.1116	0.001038
338.08 K, 2543.3 kPa, x1 = 0.4162	0.000982
338.08 K, 2836.1 kPa, x1 = 0.2888	0.000831
338.09 K, 2842.1 kPa, x1 = 0.563	0.00087
338.09 K, 3939.9 kPa, x1 = 0.6362	0.000592
348.06 K, 2388.8 kPa, x1 = 0.1116	0.001039
348.06 K, 2949.9 kPa, x1 = 0.2888	0.000832
348.06 K, 2951.9 kPa, x1 = 0.563	0.00087
348.07 K, 2640.2 kPa, x1 = 0.4162	0.000982
348.07 K, 4110.3 kPa, x1 = 0.6362	0.000593
358.03 K, 2476.8 kPa, x1 = 0.1116	0.001039
358.03 K, 3062.3 kPa, x1 = 0.2888	0.000832
358.04 K, 2736.3 kPa, x1 = 0.4162	0.000983
358.05 K, 3061.1 kPa, x1 = 0.563	0.00087
358.05 K, 4278.2 kPa, x1 = 0.6362	0.000593

[N-]=[N+]=O [nitrous oxide] + FCF
Other PVT measurement
Settings	molar volume [m3/mol]
283.32 K, 2978.6 kPa, x1 = 0.8042	0.000562
288.38 K, 3087.3 kPa, x1 = 0.8042	0.000562
293.46 K, 3188.3 kPa, x1 = 0.8042	0.000563
298.54 K, 2796 kPa, x1 = 0.5068	0.000644
298.6 K, 3286 kPa, x1 = 0.8042	0.000563
303.68 K, 2903.7 kPa, x1 = 0.5068	0.000644
303.68 K, 2988.3 kPa, x1 = 0.4207	0.000594
303.68 K, 3381.2 kPa, x1 = 0.8042	0.000563
308.76 K, 3475.8 kPa, x1 = 0.8042	0.000563
308.77 K, 2774.4 kPa, x1 = 0.2255	0.000631
308.77 K, 2991.7 kPa, x1 = 0.5068	0.000645
308.77 K, 3091.8 kPa, x1 = 0.4207	0.000594
313.85 K, 3190.6 kPa, x1 = 0.4207	0.000595
313.85 K, 3569.2 kPa, x1 = 0.8042	0.000563
313.86 K, 2875.7 kPa, x1 = 0.2255	0.000631
313.87 K, 3078.9 kPa, x1 = 0.5068	0.000645
318.94 K, 3288.2 kPa, x1 = 0.4207	0.000595
318.94 K, 3661.8 kPa, x1 = 0.8042	0.000563
318.95 K, 2971.2 kPa, x1 = 0.2255	0.000631
318.95 K, 3164.6 kPa, x1 = 0.5068	0.000645
324.03 K, 3384.5 kPa, x1 = 0.4207	0.000595
324.03 K, 3753.8 kPa, x1 = 0.8042	0.000563
324.04 K, 3064.8 kPa, x1 = 0.2255	0.000631
324.04 K, 3249.6 kPa, x1 = 0.5068	0.000645
329.13 K, 3157.2 kPa, x1 = 0.2255	0.000632
329.13 K, 3845.1 kPa, x1 = 0.8042	0.000563
329.14 K, 3334.1 kPa, x1 = 0.5068	0.000645
329.14 K, 3479.7 kPa, x1 = 0.4207	0.000595
334.22 K, 3248.1 kPa, x1 = 0.2255	0.000632
334.22 K, 3573.4 kPa, x1 = 0.4207	0.000595
334.23 K, 3417.4 kPa, x1 = 0.5068	0.000645
334.23 K, 3935.9 kPa, x1 = 0.8042	0.000564
339.33 K, 3338.3 kPa, x1 = 0.2255	0.000632
339.33 K, 3500 kPa, x1 = 0.5068	0.000645
339.34 K, 3666.5 kPa, x1 = 0.4207	0.000595
339.35 K, 4026.2 kPa, x1 = 0.8042	0.000564
344.43 K, 3581.9 kPa, x1 = 0.5068	0.000646
344.43 K, 3758.3 kPa, x1 = 0.4207	0.000595
344.43 K, 4115.4 kPa, x1 = 0.8042	0.000564
344.44 K, 3427.2 kPa, x1 = 0.2255	0.000632
353.6 K, 3922.3 kPa, x1 = 0.4207	0.000596
354.61 K, 3602.1 kPa, x1 = 0.2255	0.000632
354.62 K, 4293 kPa, x1 = 0.8042	0.000564
